The values that follow come from PubChem BioAssay (NCI).

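How tested: cells in 96-well plates exposed to compound for 48 hours at five concentrations. Here, GI50 denotes the concentration required for 50% inhibition of growth. TGI: total growth inhibition.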

Some test systems named below: NCI-H460 lung; T-47D breast; KM12 colon; PC-3 prostate; EKVX NSCLC; UACC-62 melanoma; BT-549 breast; SNB-19 CNS; 786-0 renal; MOLT-4 leukemia.
Common to all, as to assay: NCI-60 cell line screen, 48 h

On to `Cc1cc(C)c2c(SCc3ccc(Cl)cc3Cl)nc(N)nc2n1`, for which the TGI with NCI-H460 lung is 67.5 µM; in the assay with T-47D breast, 47 µM; in the assay on KM12 colon it was above 100 µM; with PC-3 prostate, above 100 µM; with EKVX NSCLC, above 100 µM; in the assay with UACC-62 melanoma it was above 100 µM. The TGI with BT-549 breast was above 100 µM; in the assay with SNB-19 CNS, above 100 µM; in the assay with 786-0 renal, 41.8 µM.
Regarding `O=c1c2ccccc2nc(-c2ccccc2)n1O`, the TGI in the assay on NCI-H460 lung, with T-47D breast, with KM12 colon, with PC-3 prostate, in the assay on EKVX NSCLC and in the assay on UACC-62 melanoma was above 100 µM in each case. The TGI with BT-549 breast, with SNB-19 CNS and with 786-0 renal was above 100 µM each time.
In the case of `O=[N+]([O-])c1ccc(/C=C(/c2ccc([N+](=O)[O-])o2)S(=O)(=O)c2ccccc2)o1`, the TGI is 60.1 µM in the assay with NCI-H460 lung; above 100 µM in the assay on T-47D breast; 32.6 µM in the assay on KM12 colon; 30.1 µM in the assay on PC-3 prostate; 22.8 µM with EKVX NSCLC; 19.1 µM with UACC-62 melanoma. Besides, the TGI in the assay on BT-549 breast stood at 36.2 µM; in the assay on SNB-19 CNS it was 35.7 µM; with 786-0 renal, 14.7 µM.
As for `Cc1ccc2c(c1)O/C(=C\c1ccc([N+](=O)[O-])o1)C2=O`, the GI50 was 1.58 µM in the assay on NCI-H460 lung; 1.86 µM in the assay on T-47D breast; 1.7 µM with KM12 colon; 2.35 µM with MOLT-4 leukemia; 1.75 µM with PC-3 prostate; 1.6 µM in the assay with UACC-62 melanoma. For the same compound, the values for the GI50 in the assay on BT-549 breast, in the assay with SNB-19 CNS and in the assay with 786-0 renal were 1.82 µM, 3.98 µM and 2.15 µM, respectively. Besides, the TGI with NCI-H460 lung stood at 3.22 µM; with T-47D breast, 4.77 µM; with KM12 colon, 3.4 µM; in the assay with MOLT-4 leukemia, 7.52 µM; with PC-3 prostate, 5.15 µM; with UACC-62 melanoma, 3.5 µM. Besides, the TGI in the assay on BT-549 breast came out at 3.47 µM; in the assay with SNB-19 CNS it was 21.6 µM; with 786-0 renal, 4.72 µM.
As to `CC(O)(CNS(=O)(=O)c1ccccc1)c1ccccc1` (stereo not given), the TGI in the assay with NCI-H460 lung, with T-47D breast, in the assay with KM12 colon, in the assay with PC-3 prostate, in the assay on EKVX NSCLC and in the assay with UACC-62 melanoma was above 100 µM throughout. Also, the TGI in the assay on BT-549 breast, in the assay on SNB-19 CNS and with 786-0 renal was above 100 µM throughout.
In the case of `CCOc1ccc2ccc3cccnc3c2n1`, the TGI in the assay on NCI-H460 lung is above 100 µM; in the assay with T-47D breast, above 100 µM; in the assay on KM12 colon, above 100 µM; with PC-3 prostate, above 100 µM; in the assay with EKVX NSCLC, above 100 µM; in the assay on UACC-62 melanoma it was 75.9 µM. Besides, the TGI in the assay with BT-549 breast, with SNB-19 CNS and in the assay on 786-0 renal was above 100 µM in each case.
For `COC1C(O)C(C)OC(OC2CC3CCC4C(CCC5(C)C(C6=CC(=O)OC6)CCC45O)C3(O)C(OC(C)=O)C2)C1O` (stereo not given), the TGI in the assay with NCI-H460 lung is 2.74 µM; with T-47D breast it was 12.7 µM; with KM12 colon, above 48.8 µM; with PC-3 prostate, 8.77 µM; in the assay with EKVX NSCLC, 3.14 µM; in the assay with UACC-62 melanoma, 5.92 µM. Moreover, the figures for the TGI in the assay with BT-549 breast, in the assay on SNB-19 CNS and in the assay with 786-0 renal were 2.02 µM, 14.9 µM and above 100 µM, respectively.
Regarding `CC(=O)/C=C/C1=C(c2cccs2)c2ccccc2CC1`, the GI50 in the assay on T-47D breast is 23.7 µM; in the assay with KM12 colon, 25.2 µM; in the assay on PC-3 prostate it was 40.7 µM; with EKVX NSCLC, 35.1 µM; in the assay with UACC-62 melanoma, 17.6 µM; in the assay with BT-549 breast it was 32.6 µM. In addition, the GI50 in the assay with 786-0 renal was 49.4 µM. Moreover, the TGI was 53.5 µM in the assay with T-47D breast; 56.2 µM with KM12 colon; above 100 µM with PC-3 prostate; above 100 µM with EKVX NSCLC; 33.2 µM with UACC-62 melanoma; above 100 µM in the assay on BT-549 breast. Also, the TGI in the assay on 786-0 renal was above 100 µM.
For the compound `CS(=O)(=O)CCn1c(=O)c(Oc2ccc(F)cc2F)cc2cnc(NC3CCOCC3)nc21`, the GI50 in the assay with NCI-H460 lung, in the assay with T-47D breast, in the assay with KM12 colon, in the assay with MOLT-4 leukemia, in the assay with PC-3 prostate and with UACC-62 melanoma was above 25 µM throughout. Further, the GI50 in the assay with BT-549 breast, with SNB-19 CNS and in the assay with 786-0 renal was above 25 µM in each case. For the same compound, the TGI with NCI-H460 lung, in the assay on T-47D breast, with KM12 colon, in the assay with MOLT-4 leukemia, with PC-3 prostate and with UACC-62 melanoma was above 25 µM each time. The TGI in the assay with BT-549 breast, in the assay with SNB-19 CNS and in the assay with 786-0 renal was above 25 µM each time.
For the compound `C[C@@H](Oc1ccc2[nH]nc(/C=C/c3cnn(CCO)c3)c2c1)c1c(Cl)cncc1Cl`, the GI50 is 0.0866 µM in the assay on NCI-H460 lung; 1.31 µM in the assay on T-47D breast; below 0.01 µM with KM12 colon; 0.488 µM in the assay with MOLT-4 leukemia; 1.41 µM with PC-3 prostate; 1.65 µM in the assay on UACC-62 melanoma. In addition, the GI50 in the assay with BT-549 breast was 0.142 µM; with SNB-19 CNS, 0.364 µM; in the assay on 786-0 renal, 0.253 µM. Further, the TGI came out at 1.62 µM in the assay with NCI-H460 lung; 7.69 µM in the assay with T-47D breast; 5.87 µM in the assay with KM12 colon; 3.34 µM in the assay on MOLT-4 leukemia; 7.4 µM in the assay on PC-3 prostate; 3.81 µM in the assay on UACC-62 melanoma. The figures for the TGI with BT-549 breast, in the assay on SNB-19 CNS and in the assay on 786-0 renal were 0.75 µM, 3.52 µM and 2.38 µM, respectively.
As for `CC(=O)c1cc2c(c3ccsc13)-c1ccccc1CC2`, the GI50 with NCI-H460 lung was 30.1 µM; with T-47D breast, above 100 µM; in the assay on KM12 colon, 12.5 µM; in the assay with PC-3 prostate, 27.9 µM; with EKVX NSCLC, 6.37 µM; in the assay with UACC-62 melanoma it was 7.71 µM. For the same compound, the GI50 with BT-549 breast is 37 µM; in the assay with SNB-19 CNS, above 100 µM; with 786-0 renal, 35.2 µM. For the same compound, the TGI in the assay with NCI-H460 lung was above 100 µM; with T-47D breast, above 100 µM; with KM12 colon it was 54.9 µM; in the assay with PC-3 prostate, above 100 µM; in the assay on EKVX NSCLC, above 100 µM; in the assay on UACC-62 melanoma it was above 100 µM. Further, the TGI with BT-549 breast, with SNB-19 CNS and in the assay with 786-0 renal was above 100 µM each time.
